# Assay results: patent US20140142177A1, “TOPICAL ORGANIC ACID SALT COMPOSITIONS SUITABLE FOR TREATING INFECTIONS” (priority 2009, published 2014)
# Tested on: T. rubrum
# Test: Demonstration of synergistic activity, CLSI Reference Method 38-A2, growth at combined dilutions
# Assay type: cell-based, Trichophyton rubrum
# Set-up: key to growth of T. rubrum: N=negative growth; P=positive growth
# Conditions: for concentration at which negative growth was shown, individually: T. rubrum, tested individually
# Experimental: This method is the gold standard used in measuring the antifungal susceptibility of filamentous fungi that cause invasive infections. Fungal colonies are grown on potato glucose agar (PGA). One colony is picked and grown in Sabouraud glucose broth (SGB) at 24° C. for 3 days in the presence of test compound. Microdilution trays are incubated at 24° C., and are read after 5 days of culture. Turbidity in the microdilution wells is scored with the aid of a reading mirror and compared with that of the growth control. A numerical score from 0 to 4 is given to each well using the following scale: 0=optically clear or absence of growth, 1=slight growth (25% of growth control), 2=prominent reduction in growth (50% of growth control), 3=slight reduction in growth (75% of growth control), 4=no reduction in growth.
structure (smiles),measurement,setting,value
"CCC(=O)[O-].CCC(=O)[O-].[Zn+2] [Formulation F9, zinc propionate]",growth of T. rubrum,F9 0.004X alone,P 0.004X
same,growth of T. rubrum,F9 0.007X alone,P 0.007X
same,growth of T. rubrum,F9 0.015X alone,P 0.015X
same,growth of T. rubrum,F9 0.03X alone,N 0.03X
same,growth of T. rubrum,F9 0.06X alone,N 0.06X
same,growth of T. rubrum,F9 0.125X alone,N 0.125X
same,growth of T. rubrum,F9 0.25X alone,N 0.25X
same,"concentration at which negative growth was shown, individually",,0.03 times the initial concentration
"O=C([O-])c1ccccc1.[Na+] [Formulation F11, sodium benzoate]",growth of T. rubrum,F11 0.004X alone,P 0.004X
same,growth of T. rubrum,F11 0.007X alone,P 0.007X
same,growth of T. rubrum,F11 0.015X alone,P 0.015X
same,growth of T. rubrum,F11 0.03X alone,N 0.03X
same,growth of T. rubrum,F11 0.06X alone,N 0.06X
same,growth of T. rubrum,F11 0.125X alone,N 0.125X
same,growth of T. rubrum,F11 0.25X alone,N 0.25X
same,"concentration at which negative growth was shown, individually",,0.03 times the initial concentration
"O=C[O-].[Na+] [Formulation F12, sodium formate]",growth of T. rubrum,F12 0.004X alone,P 0.004X
same,growth of T. rubrum,F12 0.007X alone,P 0.007X
same,growth of T. rubrum,F12 0.015X alone,P 0.015X
same,growth of T. rubrum,F12 0.03X alone,P 0.03X
same,growth of T. rubrum,F12 0.06X alone,N 0.06X
same,growth of T. rubrum,F12 0.125X alone,N 0.125X
same,growth of T. rubrum,F12 0.25X alone,N 0.25X
same,"concentration at which negative growth was shown, individually",,0.06 times the initial concentration
"CC(=O)[O-].[Na+] [Formulation F14, sodium acetate]",growth of T. rubrum,F14 0.004X alone,P 0.004X
same,growth of T. rubrum,F14 0.007X alone,P 0.007X
same,growth of T. rubrum,F14 0.015X alone,P 0.015X
same,growth of T. rubrum,F14 0.03X alone,P 0.03X
same,growth of T. rubrum,F14 0.06X alone,P 0.06X
same,growth of T. rubrum,F14 0.125X alone,N 0.125X
same,growth of T. rubrum,F14 0.25X alone,N 0.25X
same,"concentration at which negative growth was shown, individually",,0.125 times the initial concentration
